According to article PMC10382584, “Macrocyclization of linear molecules by deep learning to facilitate macrocyclic drug candidates discovery” (Nature Communications, 2023):

What was measured:
Experiment in all cases: biochemical
Parameters in all cases: DiscoveRx KINOMEscan competition binding, percent of DMSO control signal at 100 nM
Settings in all cases: read-out: Fig. 4a / Percent Control / Compound 1; percent of DMSO control, competition binding
[1] = target: ACVR1 (Homo sapiens, UniProt Q04771)
Method: (§1) The kinase selectivity profile was performed by using the DiscoveRx KINOMEscan platform. […] Test compounds were prepared as 40× stocks in 100% DMSO and directly diluted into the assay. The results were defined as a percentage of signal between the negative (DMSO, 100% control) and the positive (control compound, 0% control) control, which was calculated as follows: percent control = [(test compound signal − positive control signal)/(negative control signal − positive control signal)] × 100.

[2] = target: CDKL2 (Homo sapiens, UniProt Q92772)
Method: as §1

[3] = target: CLK4 (Homo sapiens, UniProt Q9HAZ1)
Method: as §1

[4] = target: T1, DLK (Homo sapiens, UniProt Q12852)
T1 construct: gene MAP3K12
Method: as §1

[5] = target: DYRK1A (Homo sapiens, UniProt Q13627)
Method: as §1

[6] = target: EPHA3 (Homo sapiens, UniProt P29320)
Method: as §1

[7] = target: EPHA4 (Homo sapiens, UniProt P54764)
Method: as §1

[8] = target: ERBB4 (Homo sapiens, UniProt Q15303)
Method: as §1

[9] = target: GAK (Homo sapiens, UniProt O14976)
Method: as §1

[10] = target: HIPK2 (Homo sapiens, UniProt Q9H2X6)
Method: as §1

[11] = target: HUNK (Homo sapiens, UniProt P57058)
Method: as §1

[12] = target: IRAK4 (Homo sapiens, UniProt Q9NWZ3)
Method: as §1

[13] = target: MAP4K4 (Homo sapiens, UniProt O95819)
Method: as §1

[14] = target: MARK2 (Homo sapiens, UniProt Q7KZI7)
Method: as §1

[15] = target: T2, NDR2 (Homo sapiens, UniProt Q9Y2H1)
T2 construct: gene STK38L
Method: as §1

[16] = target: NEK3 (Homo sapiens, UniProt P51956)
Method: as §1

[17] = target: T3, NIM1 (Homo sapiens, UniProt Q8IY84)
T3 construct: gene NIM1K
Method: as §1

[18] = target: PIK3CD (Homo sapiens, UniProt O00329)
Method: as §1

[19] = target: PIM1 (Homo sapiens, UniProt P11309)
Method: as §1

[20] = target: PRKG2 (Homo sapiens, UniProt Q13237)
Method: as §1

[21] = target: RIOK2 (Homo sapiens, UniProt Q9BVS4)
Method: as §1

[22] = target: RIOK3 (Homo sapiens, UniProt O14730)
Method: as §1

[23] = target: STK35 (Homo sapiens, UniProt Q8TDR2)
Method: as §1

[24] = target: ULK3 (Homo sapiens, UniProt Q6PHR2)
Method: as §1

[25] = target: T4, p38-beta (Homo sapiens, UniProt Q15759)
T4 construct: gene MAPK11
Method: as §1
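Note: KINOMEscan kinase panel binding assay, signal normalized between DMSO as 100% and a positive control compound as 0%.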

T2 sequence (Q9Y2H1 whole entry): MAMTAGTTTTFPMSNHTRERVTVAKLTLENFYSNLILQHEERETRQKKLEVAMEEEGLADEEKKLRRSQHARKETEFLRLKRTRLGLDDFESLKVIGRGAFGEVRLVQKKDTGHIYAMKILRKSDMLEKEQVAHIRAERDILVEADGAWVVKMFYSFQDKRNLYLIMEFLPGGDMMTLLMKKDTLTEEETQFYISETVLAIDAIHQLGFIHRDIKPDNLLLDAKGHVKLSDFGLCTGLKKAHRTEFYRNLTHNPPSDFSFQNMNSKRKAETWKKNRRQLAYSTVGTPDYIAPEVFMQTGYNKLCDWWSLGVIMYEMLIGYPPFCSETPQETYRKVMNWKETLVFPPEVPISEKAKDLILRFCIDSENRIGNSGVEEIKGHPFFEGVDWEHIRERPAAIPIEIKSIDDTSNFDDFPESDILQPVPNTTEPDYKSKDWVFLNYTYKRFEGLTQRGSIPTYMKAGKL
HUNK, sequence (P57058 whole entry): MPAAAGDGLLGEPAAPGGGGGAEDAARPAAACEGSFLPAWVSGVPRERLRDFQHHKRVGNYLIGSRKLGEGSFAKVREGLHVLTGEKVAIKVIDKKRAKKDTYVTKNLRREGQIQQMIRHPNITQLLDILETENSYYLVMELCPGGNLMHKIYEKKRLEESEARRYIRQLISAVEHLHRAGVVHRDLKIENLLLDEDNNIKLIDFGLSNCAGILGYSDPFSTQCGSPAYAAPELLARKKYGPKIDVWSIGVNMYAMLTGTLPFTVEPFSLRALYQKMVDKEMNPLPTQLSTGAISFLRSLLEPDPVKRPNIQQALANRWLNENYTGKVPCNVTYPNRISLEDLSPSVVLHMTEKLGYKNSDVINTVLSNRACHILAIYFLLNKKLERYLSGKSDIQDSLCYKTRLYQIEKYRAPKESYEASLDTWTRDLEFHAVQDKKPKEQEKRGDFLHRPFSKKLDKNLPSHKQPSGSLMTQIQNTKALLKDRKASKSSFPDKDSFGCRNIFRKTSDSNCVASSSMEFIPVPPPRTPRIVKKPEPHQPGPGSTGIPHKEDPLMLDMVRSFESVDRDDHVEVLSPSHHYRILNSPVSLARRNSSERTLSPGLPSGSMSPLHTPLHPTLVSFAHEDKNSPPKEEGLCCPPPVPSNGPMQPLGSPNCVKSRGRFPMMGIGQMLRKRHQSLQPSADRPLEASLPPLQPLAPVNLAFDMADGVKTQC
HIPK2, sequence (Q9H2X6 whole entry): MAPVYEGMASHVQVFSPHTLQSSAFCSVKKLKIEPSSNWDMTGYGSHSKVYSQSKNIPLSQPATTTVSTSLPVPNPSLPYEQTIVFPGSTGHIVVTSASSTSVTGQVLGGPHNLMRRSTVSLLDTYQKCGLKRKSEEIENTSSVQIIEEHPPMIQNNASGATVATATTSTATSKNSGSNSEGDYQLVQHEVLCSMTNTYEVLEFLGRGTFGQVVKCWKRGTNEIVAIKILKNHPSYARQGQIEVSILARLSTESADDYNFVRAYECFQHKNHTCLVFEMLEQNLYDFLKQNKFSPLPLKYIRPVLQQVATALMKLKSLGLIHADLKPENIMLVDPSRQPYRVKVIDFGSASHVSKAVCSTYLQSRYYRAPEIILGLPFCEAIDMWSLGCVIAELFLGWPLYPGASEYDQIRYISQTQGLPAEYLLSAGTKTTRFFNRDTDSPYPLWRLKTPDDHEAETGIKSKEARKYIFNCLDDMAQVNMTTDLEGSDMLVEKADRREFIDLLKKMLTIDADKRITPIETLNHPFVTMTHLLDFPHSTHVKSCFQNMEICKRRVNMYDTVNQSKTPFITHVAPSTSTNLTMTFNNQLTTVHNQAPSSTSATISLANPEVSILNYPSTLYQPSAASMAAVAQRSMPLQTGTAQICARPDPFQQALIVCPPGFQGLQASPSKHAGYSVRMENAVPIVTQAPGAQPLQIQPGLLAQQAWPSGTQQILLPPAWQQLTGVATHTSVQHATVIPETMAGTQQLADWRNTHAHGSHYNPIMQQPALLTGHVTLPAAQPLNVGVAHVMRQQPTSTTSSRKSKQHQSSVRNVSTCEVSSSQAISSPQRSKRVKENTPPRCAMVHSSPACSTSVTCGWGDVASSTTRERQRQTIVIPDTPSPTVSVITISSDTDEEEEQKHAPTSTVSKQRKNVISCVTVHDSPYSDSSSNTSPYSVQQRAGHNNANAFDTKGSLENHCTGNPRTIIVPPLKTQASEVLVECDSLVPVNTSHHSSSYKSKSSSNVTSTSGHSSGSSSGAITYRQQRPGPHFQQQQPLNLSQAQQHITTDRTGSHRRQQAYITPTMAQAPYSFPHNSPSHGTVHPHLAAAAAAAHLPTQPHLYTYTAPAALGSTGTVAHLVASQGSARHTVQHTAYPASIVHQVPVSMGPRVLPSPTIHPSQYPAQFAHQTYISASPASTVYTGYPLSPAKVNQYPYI
T1 sequence (Q12852 whole entry): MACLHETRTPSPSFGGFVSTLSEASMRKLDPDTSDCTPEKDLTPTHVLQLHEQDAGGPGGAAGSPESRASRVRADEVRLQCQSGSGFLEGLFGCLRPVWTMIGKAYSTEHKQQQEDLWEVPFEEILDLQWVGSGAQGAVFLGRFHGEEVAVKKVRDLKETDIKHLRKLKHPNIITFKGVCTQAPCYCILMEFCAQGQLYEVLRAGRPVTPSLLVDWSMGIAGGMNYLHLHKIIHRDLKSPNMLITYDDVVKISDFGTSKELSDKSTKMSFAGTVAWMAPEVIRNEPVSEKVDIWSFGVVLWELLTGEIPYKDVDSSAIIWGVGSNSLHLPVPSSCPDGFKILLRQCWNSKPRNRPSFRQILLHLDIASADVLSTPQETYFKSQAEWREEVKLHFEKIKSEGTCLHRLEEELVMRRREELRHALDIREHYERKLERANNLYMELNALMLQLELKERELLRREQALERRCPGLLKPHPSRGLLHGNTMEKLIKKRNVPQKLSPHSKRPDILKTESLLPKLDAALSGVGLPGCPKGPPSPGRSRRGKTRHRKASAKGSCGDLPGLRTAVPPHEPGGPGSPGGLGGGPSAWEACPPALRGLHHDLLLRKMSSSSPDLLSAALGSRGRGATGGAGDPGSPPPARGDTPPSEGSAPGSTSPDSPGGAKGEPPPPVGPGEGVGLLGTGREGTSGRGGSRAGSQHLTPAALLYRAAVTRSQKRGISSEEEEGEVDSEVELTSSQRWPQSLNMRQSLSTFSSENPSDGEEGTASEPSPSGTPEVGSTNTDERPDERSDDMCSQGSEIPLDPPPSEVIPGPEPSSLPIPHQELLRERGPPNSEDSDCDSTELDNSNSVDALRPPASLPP
RIOK3, sequence (O14730 whole entry): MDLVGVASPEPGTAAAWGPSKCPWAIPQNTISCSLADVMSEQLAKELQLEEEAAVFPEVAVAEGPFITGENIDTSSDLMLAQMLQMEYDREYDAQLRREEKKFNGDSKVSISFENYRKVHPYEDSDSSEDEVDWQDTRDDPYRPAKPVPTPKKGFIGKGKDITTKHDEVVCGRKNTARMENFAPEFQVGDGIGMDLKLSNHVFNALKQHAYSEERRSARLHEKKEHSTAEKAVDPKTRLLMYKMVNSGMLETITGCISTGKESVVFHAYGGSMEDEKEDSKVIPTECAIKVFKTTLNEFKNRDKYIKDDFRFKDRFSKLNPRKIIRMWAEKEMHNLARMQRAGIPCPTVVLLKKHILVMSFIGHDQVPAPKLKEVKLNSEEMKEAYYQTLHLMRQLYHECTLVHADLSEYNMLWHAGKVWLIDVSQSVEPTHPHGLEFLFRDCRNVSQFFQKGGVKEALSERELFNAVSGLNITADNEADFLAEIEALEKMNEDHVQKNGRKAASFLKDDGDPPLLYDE
EPHA4, sequence (P54764 whole entry): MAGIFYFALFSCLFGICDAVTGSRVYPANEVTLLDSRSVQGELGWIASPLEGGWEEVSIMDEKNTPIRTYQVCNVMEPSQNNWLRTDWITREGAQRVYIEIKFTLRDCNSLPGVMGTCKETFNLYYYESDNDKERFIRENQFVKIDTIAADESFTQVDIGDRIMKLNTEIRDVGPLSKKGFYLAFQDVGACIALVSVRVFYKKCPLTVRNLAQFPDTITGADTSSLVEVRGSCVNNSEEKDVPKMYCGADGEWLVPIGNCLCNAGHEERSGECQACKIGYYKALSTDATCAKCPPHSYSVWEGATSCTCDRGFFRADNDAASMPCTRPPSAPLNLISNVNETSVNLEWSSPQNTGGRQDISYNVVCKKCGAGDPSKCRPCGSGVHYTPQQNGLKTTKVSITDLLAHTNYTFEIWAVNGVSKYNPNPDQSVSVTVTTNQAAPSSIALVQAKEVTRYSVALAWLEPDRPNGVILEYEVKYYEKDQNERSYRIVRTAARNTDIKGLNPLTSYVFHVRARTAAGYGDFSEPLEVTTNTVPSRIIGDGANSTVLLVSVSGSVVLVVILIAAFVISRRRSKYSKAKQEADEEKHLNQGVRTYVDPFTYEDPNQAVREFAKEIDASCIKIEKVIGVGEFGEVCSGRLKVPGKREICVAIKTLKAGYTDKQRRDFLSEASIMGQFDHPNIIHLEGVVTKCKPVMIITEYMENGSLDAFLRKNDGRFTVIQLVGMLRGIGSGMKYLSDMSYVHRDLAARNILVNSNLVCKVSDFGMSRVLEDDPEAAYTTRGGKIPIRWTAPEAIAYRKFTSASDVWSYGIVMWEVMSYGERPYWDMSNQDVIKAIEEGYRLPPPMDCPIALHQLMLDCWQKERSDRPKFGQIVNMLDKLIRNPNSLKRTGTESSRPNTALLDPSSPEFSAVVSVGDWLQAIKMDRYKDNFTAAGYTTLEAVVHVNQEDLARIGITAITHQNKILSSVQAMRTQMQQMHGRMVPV
PIM1, sequence (P11309 whole entry): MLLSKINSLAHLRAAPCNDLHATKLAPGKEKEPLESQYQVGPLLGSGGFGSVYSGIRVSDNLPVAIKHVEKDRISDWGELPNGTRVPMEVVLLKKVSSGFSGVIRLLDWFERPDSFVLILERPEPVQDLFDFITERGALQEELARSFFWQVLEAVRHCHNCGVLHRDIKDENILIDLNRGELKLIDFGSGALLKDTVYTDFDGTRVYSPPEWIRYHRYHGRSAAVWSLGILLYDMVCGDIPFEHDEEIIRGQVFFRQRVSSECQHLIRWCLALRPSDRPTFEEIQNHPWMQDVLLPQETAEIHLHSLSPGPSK

For `Cc1cnc2nc1Nc1cccc(c1)COCc1cc(ccc1OCCN1CCCC1)N2` [Compound 1], the remaining binding at 0.1 µM [1] was 92%, the remaining binding at 0.1 µM [2] was 95% and the remaining binding at 0.1 µM [3] was 94%. For the same compound, the remaining binding at 0.1 µM [4] was 43%, the remaining binding at 0.1 µM [5] was 88% and the remaining binding at 0.1 µM [6] was 85%. It also gave a remaining binding at 0.1 µM [7] of 100%, a remaining binding at 0.1 µM [8] of 82% and a remaining binding at 0.1 µM [9] of 36%. For the same compound, the remaining binding at 0.1 µM [10] was 100%, the remaining binding at 0.1 µM [11] was 100% and the remaining binding at 0.1 µM [12] was 72%. The remaining binding at 0.1 µM [13] was 82%, the remaining binding at 0.1 µM [14] was 89% and the remaining binding at 0.1 µM [15] was 92%. For the same compound, the remaining binding at 0.1 µM [16] was 90%, the remaining binding at 0.1 µM [17] was 99% and the remaining binding at 0.1 µM [18] was 89%. It also gave a remaining binding at 0.1 µM [19] of 100%, a remaining binding at 0.1 µM [20] of 47% and a remaining binding at 0.1 µM [21] of 84%. For the same compound, the remaining binding at 0.1 µM [22] was 79%, the remaining binding at 0.1 µM [23] was 92% and the remaining binding at 0.1 µM [24] was 85%. It also gave a remaining binding at 0.1 µM [25] of 86%.
